# Source: publication PMC5218480 (PLoS ONE, 2017)
# Test system: MV-4-11 cells
# Test: Gene expression microarray analysis (Affymetrix PrimeView) and GSEA
# Type: cell-based, human
# Design: RFU PODN (11730768_x_at) / Fold change /veh PODN (11730768_x_at) / RFU LINC00158 (11744669_a_at) / Fold change /veh LINC00158 (11744669_a_at) / RFU DUSP10 (11751237_a_at) / Fold change /veh DUSP10 (11751237_a_at) / RFU ID3 (11757404_x_at) / Fold change /veh ID3 (11757404_x_at) / RFU PLEKHG5 (11737974_s_at) / Fold change /veh PLEKHG5 (11737974_s_at) / RFU LRRC4B (11730491_at) / Fold change /veh LRRC4B (11730491_at) / RFU GIMAP4 (11747438_a_at) / Fold change /veh GIMAP4 (11747438_a_at) / RFU KRT8 (11758183_x_at) / Fold change /veh KRT8 (11758183_x_at) / RFU CNN1 (11734310_a_at) / Fold change /veh CNN1 (11734310_a_at) / RFU VPS37D (11726825_at) / Fold change /veh VPS37D (11726825_at) / RFU C10orf10 (11716522_x_at) / Fold change /veh C10orf10 (11716522_x_at) / RFU KIR2DL2 /// KIR2DL4 /// KIR2DL5A /// KIR2DL5B /// KIR2DS1 /// KIR2DS2 /// KIR2DS3 /// KIR2DS4 /// KIR3DL3 /// KIR3DL3 /// KIR3DS1 (11738374_at) / Fold change /veh KIR2DL2 /// KIR2DL4 /// KIR2DL5A /// KIR2DL5B /// KIR2DS1 /// KIR2DS2 /// KIR2DS3 /// KIR2DS4 /// KIR3DL3 /// KIR3DL3 /// KIR3DS1 (11738374_at) / RFU C1QL1 (11718748_at) / Fold change /veh C1QL1 (11718748_at) / RFU TMPRSS4 (11747572_a_at) / Fold change /veh TMPRSS4 (11747572_a_at) / RFU HAMP (11756126_x_at) / Fold change /veh HAMP (11756126_x_at) / RFU RNFT2 (11725882_a_at) / Fold change /veh RNFT2 (11725882_a_at) / RFU NR4A2 (11747474_a_at) / Fold change /veh NR4A2 (11747474_a_at) / RFU ABCC12 (11746883_a_at) / Fold change /veh ABCC12 (11746883_a_at) / RFU TMEM136 (11760407_x_at) / Fold change /veh TMEM136 (11760407_x_at) / RFU CLDN22 /// WWC2 (11732394_at) / Fold change /veh CLDN22 /// WWC2 (11732394_at) / RFU HLA-DPB1 (11760878_x_at) / Fold change /veh HLA-DPB1 (11760878_x_at) / RFU SPINT1 (11716480_a_at) / Fold change /veh SPINT1 (11716480_a_at) / RFU GAP43 (11754022_s_at) / Fold change /veh GAP43 (11754022_s_at) / RFU A4GNT (11735810_at) / Fold change /veh A4GNT (11735810_at) / RFU PRB3 (11715151_x_at) / Fold change /veh PRB3 (11715151_x_at) / RFU TUBB4B (11761932_at) / Fold change /veh TUBB4B (11761932_at) / RFU CAPN14 (11732068_a_at) / Fold change /veh CAPN14 (11732068_a_at) / RFU TMCC2 (11721928_a_at) / Fold change /veh TMCC2 (11721928_a_at) / RFU IRGQ (11745062_a_at) / Fold change /veh IRGQ (11745062_a_at) / RFU FAM174B (11720279_a_at) / Fold change /veh FAM174B (11720279_a_at) / RFU TMPRSS4 (11748680_a_at) / Fold change /veh TMPRSS4 (11748680_a_at) / RFU FAM212B (11763350_a_at) / Fold change /veh FAM212B (11763350_a_at) / RFU PLEKHG5 (11743358_a_at) / Fold change /veh PLEKHG5 (11743358_a_at) / RFU ZSCAN30 (11745921_a_at) / Fold change /veh ZSCAN30 (11745921_a_at) / RFU CMKLR1 (11741424_a_at) / Fold change /veh CMKLR1 (11741424_a_at) / RFU LOC101060620 /// MAPK8IP1 (11723275_at) / Fold change /veh LOC101060620 /// MAPK8IP1 (11723275_at) / RFU SPTSSB (11747773_x_at) / Fold change /veh SPTSSB (11747773_x_at) / RFU PRSS12 (11739890_at) / Fold change /veh PRSS12 (11739890_at) / RFU BIN1 (11741810_x_at) / Fold change /veh BIN1 (11741810_x_at) / RFU WNT11 (11732464_a_at) / Fold change /veh WNT11 (11732464_a_at) / RFU C10orf10 (11716521_a_at) / Fold change /veh C10orf10 (11716521_a_at) / RFU C5orf56 (11738089_at) / Fold change /veh C5orf56 (11738089_at) / RFU CYB561 (11721691_x_at) / Fold change /veh CYB561 (11721691_x_at) / RFU ANKRD19P (11752326_a_at) / Fold change /veh ANKRD19P (11752326_a_at) / RFU OR2T12 /// OR2T33 /// OR2T8 (11738714_s_at) / Fold change /veh OR2T12 /// OR2T33 /// OR2T8 (11738714_s_at) / RFU VCAN (11748164_a_at) / Fold change /veh VCAN (11748164_a_at) / RFU JSRP1 (11732532_at) / Fold change /veh JSRP1 (11732532_at) / RFU KRTAP10-11 (11738290_x_at) / Fold change /veh KRTAP10-11 (11738290_x_at) / RFU MYO3A (11730013_a_at) / Fold change /veh MYO3A (11730013_a_at) / RFU EBF3 (11725865_a_at) / Fold change /veh EBF3 (11725865_a_at) / RFU CAMK2N1 (11719241_x_at) / Fold change /veh CAMK2N1 (11719241_x_at) / RFU C5orf56 (11738088_a_at) / Fold change /veh C5orf56 (11738088_a_at) / RFU OLFML3 (11715873_a_at) / Fold change /veh OLFML3 (11715873_a_at) / RFU LOC100653217 /// NTM (11731650_a_at) / Fold change /veh LOC100653217 /// NTM (11731650_a_at) / RFU MAPK11 (11762145_a_at) / Fold change /veh MAPK11 (11762145_a_at) / RFU FIZ1 (11724087_x_at) / Fold change /veh FIZ1 (11724087_x_at) / RFU OASL (11726364_x_at) / Fold change /veh OASL (11726364_x_at) / RFU SOX15 (11748057_x_at) / Fold change /veh SOX15 (11748057_x_at) / RFU CD79A (11719716_a_at) / Fold change /veh CD79A (11719716_a_at) / RFU HIST1H1D (11736915_at) / Fold change /veh HIST1H1D (11736915_at) / RFU CASKIN2 (11723855_a_at) / Fold change /veh CASKIN2 (11723855_a_at) / RFU LOC730098 (11760151_x_at) / Fold change /veh LOC730098 (11760151_x_at) / RFU OR4N2 (11742367_at) / Fold change /veh OR4N2 (11742367_at) / RFU PRRT2 (11749266_a_at) / Fold change /veh PRRT2 (11749266_a_at) / RFU SNX32 (11753110_a_at) / Fold change /veh SNX32 (11753110_a_at) / RFU CDHR5 (11726645_a_at) / Fold change /veh CDHR5 (11726645_a_at) / RFU RCAN1 (11760418_a_at) / Fold change /veh RCAN1 (11760418_a_at) / RFU FAM167A (11723789_a_at) / Fold change /veh FAM167A (11723789_a_at) / RFU FAM26E (11764081_at) / Fold change /veh FAM26E (11764081_at) / RFU ISYNA1 (11749810_s_at) / Fold change /veh ISYNA1 (11749810_s_at) / RFU ACY1 (11761880_at) / Fold change /veh ACY1 (11761880_at) / RFU 11764098_at / Fold change /veh 11764098_at / RFU SAMD14 (11745864_x_at) / Fold change /veh SAMD14 (11745864_x_at) / RFU NPB (11741838_a_at) / Fold change /veh NPB (11741838_a_at) / RFU TMPRSS6 (11731388_a_at) / Fold change /veh TMPRSS6 (11731388_a_at) / RFU KRTAP10-2 (11738614_at) / Fold change /veh KRTAP10-2 (11738614_at) / RFU ARHGAP8 /// PRR5-ARHGAP8 (11727945_x_at) / Fold change /veh ARHGAP8 /// PRR5-ARHGAP8 (11727945_x_at) / RFU KRTAP5-7 /// NADSYN1 (11734609_at) / Fold change /veh KRTAP5-7 /// NADSYN1 (11734609_at) / RFU RASL12 (11751679_a_at) / Fold change /veh RASL12 (11751679_a_at) / RFU CDKN2B (11736163_a_at) / Fold change /veh CDKN2B (11736163_a_at) / RFU PRF1 (11729649_at) / Fold change /veh PRF1 (11729649_at) / RFU, ZNF638 /// ZNF638-IT1 / Fold change vs veh, ZNF638 /// ZNF638-IT1 / RFU, PANK3 / Fold change vs veh, PANK3 / RFU, SH3YL1 / Fold change vs veh, SH3YL1 / RFU, ZEB2 / Fold change vs veh, ZEB2 / RFU, NRIP1 / Fold change vs veh, NRIP1 / RFU, PTTG1IP / Fold change vs veh, PTTG1IP / RFU, CAPN2 / Fold change vs veh, CAPN2 / RFU, MED14 / Fold change vs veh, MED14 / RFU, SNORA58 / Fold change vs veh, SNORA58 / RFU, C1orf63 / Fold change vs veh, C1orf63 / RFU, LRRFIP1 / Fold change vs veh, LRRFIP1 / RFU, NDUFAF7 / Fold change vs veh, NDUFAF7 / RFU, SLC12A2 / Fold change vs veh, SLC12A2 / RFU, IBTK / Fold change vs veh, IBTK / RFU, ESF1 / Fold change vs veh, ESF1 / Fold change vs veh, TMEM50B / RFU, TAOK1 / Fold change vs veh, TAOK1 / RFU, ACBD3 / Fold change vs veh, ACBD3 / RFU, TMA16 / Fold change vs veh, TMA16 / RFU, RWDD3 / Fold change vs veh, RWDD3 / RFU, BCAT1 / Fold change vs veh, BCAT1 / RFU, EDEM3 / Fold change vs veh, EDEM3 / RFU, TMEM33 / Fold change vs veh, TMEM33 / RFU, WDR75 / Fold change vs veh, WDR75 / RFU, AHCTF1 / Fold change vs veh, AHCTF1 / RFU, TFRC / Fold change vs veh, TFRC / RFU, ZDHHC17 / Fold change vs veh, ZDHHC17 / RFU, NOM1 / Fold change vs veh, NOM1 / RFU, ARL8B / Fold change vs veh, ARL8B / RFU, ZBTB11 / Fold change vs veh, ZBTB11 / RFU, TAMM41 / Fold change vs veh, TAMM41 / RFU, KIAA1704 /// LOC100996395 / Fold change vs veh, KIAA1704 /// LOC100996395 / RFU, ING1 / Fold change vs veh, ING1 / RFU, TRMT61B / Fold change vs veh, TRMT61B / RFU, FUBP3 / Fold change vs veh, FUBP3 / RFU, TP53 / Fold change vs veh, TP53 / RFU, TNKS2 / Fold change vs veh, TNKS2 / RFU, ZFP14 / Fold change vs veh, ZFP14 / RFU, ACTR2 / Fold change vs veh, ACTR2 / RFU, PPP3R1 / Fold change vs veh, PPP3R1 / RFU, PIK3R1 / Fold change vs veh, PIK3R1 / RFU, HNRNPA1 / Fold change vs veh, HNRNPA1 / RFU, RNF170 / Fold change vs veh, RNF170 / RFU, ZNF28 / Fold change vs veh, ZNF28 / RFU, RNGTT / Fold change vs veh, RNGTT / RFU, OGT / Fold change vs veh, OGT / RFU, BRD1 / Fold change vs veh, BRD1 / RFU, MARS / Fold change vs veh, MARS / RFU, ZNF655 / Fold change vs veh, ZNF655 / RFU, FAHD1 / Fold change vs veh, FAHD1 / RFU, BDP1 / Fold change vs veh, BDP1 / RFU, LRRCC1 / Fold change vs veh, LRRCC1 / RFU, ARID1A / Fold change vs veh, ARID1A / RFU, ZNF146 / Fold change vs veh, ZNF146 / RFU, ZNF330 / Fold change vs veh, ZNF330 / RFU, GPN3 / Fold change vs veh, GPN3 / RFU, C9orf123 / Fold change vs veh, C9orf123 / RFU, N4BP2L2 / Fold change vs veh, N4BP2L2 / RFU, ARFIP1 / Fold change vs veh, ARFIP1 / RFU, FAM179B / Fold change vs veh, FAM179B / RFU, BCL10 / Fold change vs veh, BCL10 / RFU, UHRF1BP1L / Fold change vs veh, UHRF1BP1L / RFU, BET1 / Fold change vs veh, BET1 / RFU, CNOT2 / Fold change vs veh, CNOT2 / RFU, ZNF268 / Fold change vs veh, ZNF268 / Fold change vs veh, ZNF507 / RFU, DGCR2 / Fold change vs veh, DGCR2 / RFU, WDSUB1 / Fold change vs veh, WDSUB1 / Fold change vs veh, HSP90B1 /// MIR3652 / RFU, ADSS / Fold change vs veh, ADSS / RFU, GK / Fold change vs veh, GK / RFU, ZNF148 / Fold change vs veh, ZNF148 / RFU, TAF9 / Fold change vs veh, TAF9 / RFU, SLC1A5 / Fold change vs veh, SLC1A5 / RFU, SLMO2 / Fold change vs veh, SLMO2 / RFU, ABCC4 / Fold change vs veh, ABCC4 / RFU, LOC101060439 /// RAP1B / Fold change vs veh, LOC101060439 /// RAP1B / RFU, RFX7 / Fold change vs veh, RFX7 / RFU, GTPBP10 / Fold change vs veh, GTPBP10 / RFU, CNEP1R1 / Fold change vs veh, CNEP1R1 / RFU, BIVM-ERCC5 /// ERCC5 / Fold change vs veh, BIVM-ERCC5 /// ERCC5 / RFU, ILF3 / Fold change vs veh, ILF3 / RFU 11762660_at / Fold change /veh 11762660_at / RFU VCAN (11757783_s_at) / Fold change /veh VCAN (11757783_s_at) / RFU DDX43 (11728927_at) / Fold change /veh DDX43 (11728927_at) / RFU KRT8 (11758188_x_at) / Fold change /veh KRT8 (11758188_x_at) / RFU NKD1 (11759106_at) / Fold change /veh NKD1 (11759106_at) / RFU SRD5A1 (11742802_a_at) / Fold change /veh SRD5A1 (11742802_a_at) / RFU TPSAB1 /// TPSB2 (11721975_s_at) / Fold change /veh TPSAB1 /// TPSB2 (11721975_s_at) / RFU GSTM3 (11746129_a_at) / Fold change /veh GSTM3 (11746129_a_at) / RFU IL23R (11737362_x_at) / Fold change /veh IL23R (11737362_x_at) / RFU TMEM51 (11727254_a_at) / Fold change /veh TMEM51 (11727254_a_at) / RFU PIWIL2 (11732686_x_at) / Fold change /veh PIWIL2 (11732686_x_at) / RFU ORM1 (11744905_x_at) / Fold change /veh ORM1 (11744905_x_at) / RFU CCDC152 (11743942_at) / Fold change /veh CCDC152 (11743942_at) / RFU ECM1 (11717891_a_at) / Fold change /veh ECM1 (11717891_a_at) / RFU IL23R (11748794_a_at) / Fold change /veh IL23R (11748794_a_at) / RFU TNFAIP8L3 (11732012_x_at) / Fold change /veh TNFAIP8L3 (11732012_x_at) / RFU MBOAT4 (11741988_at) / Fold change /veh MBOAT4 (11741988_at) / RFU 11764193_at / Fold change /veh 11764193_at / RFU TMEM53 (11763286_at) / Fold change /veh TMEM53 (11763286_at) / RFU MAGEB2 (11727129_at) / Fold change /veh MAGEB2 (11727129_at) / RFU TMEM200A (11744735_a_at) / Fold change /veh TMEM200A (11744735_a_at) / RFU CCDC152 (11751479_a_at) / Fold change /veh CCDC152 (11751479_a_at) / RFU FAM211A (11726209_a_at) / Fold change /veh FAM211A (11726209_a_at) / RFU RGS16 (11746705_a_at) / Fold change /veh RGS16 (11746705_a_at) / RFU VCAN (11755009_s_at) / Fold change /veh VCAN (11755009_s_at) / RFU RHOB (11743442_s_at) / Fold change /veh RHOB (11743442_s_at) / RFU RGS16 (11720943_a_at) / Fold change /veh RGS16 (11720943_a_at) / RFU RGS16 (11720944_at) / Fold change /veh RGS16 (11720944_at) / RFU, VPS4B / Fold change vs veh, VPS4B / RFU, CREB1 / Fold change vs veh, CREB1 / RFU, DNAJC13 / Fold change vs veh, DNAJC13 / RFU, GNAQ / Fold change vs veh, GNAQ / RFU, CDK5R1 / Fold change vs veh, CDK5R1 / RFU, ZRANB3 / Fold change vs veh, ZRANB3 / RFU, CUL4A / Fold change vs veh, CUL4A / RFU, CCNY / Fold change vs veh, CCNY / RFU, UFL1 / Fold change vs veh, UFL1 / RFU, COG3 / Fold change vs veh, COG3 / RFU, DIAPH2 / Fold change vs veh, DIAPH2 / RFU, SKA2 / Fold change vs veh, SKA2 / RFU, AFF3 / Fold change vs veh, AFF3 / RFU, LMF1 / Fold change vs veh, LMF1 / RFU, IPO11 / Fold change vs veh, IPO11 / RFU, DFFB / Fold change vs veh, DFFB / RFU, FOXP1 / Fold change vs veh, FOXP1 / RFU, CARD8 / Fold change vs veh, CARD8 / RFU, STRN3 / Fold change vs veh, STRN3 / RFU, ADK / Fold change vs veh, ADK / RFU, RASSF2 / Fold change vs veh, RASSF2 / RFU, WIPF1 / Fold change vs veh, WIPF1 / RFU, LARP1B / Fold change vs veh, LARP1B / RFU, RASA1 / Fold change vs veh, RASA1 / RFU, RB1 / Fold change vs veh, RB1 / RFU, PPFIA1 / Fold change vs veh, PPFIA1 / RFU, MAT2A / Fold change vs veh, MAT2A / RFU, CCT5 / Fold change vs veh, CCT5 / RFU, WDR92 / Fold change vs veh, WDR92 / RFU, CUX1 / Fold change vs veh, CUX1 / RFU, TTC7A / Fold change vs veh, TTC7A / RFU, TMEM135 / Fold change vs veh, TMEM135 / RFU, DEPTOR / Fold change vs veh, DEPTOR / RFU, CPM / Fold change vs veh, CPM / RFU, DNAJB6 / Fold change vs veh, DNAJB6 / RFU, CACNA2D3 / Fold change vs veh, CACNA2D3 / RFU, DTX4 / Fold change vs veh, DTX4 / RFU, TFCP2 / Fold change vs veh, TFCP2 / RFU, GMCL1 /// GMCL1P1 / Fold change vs veh, GMCL1 /// GMCL1P1 / RFU, AEBP2 / Fold change vs veh, AEBP2 / RFU, SNHG1 /// SNORD22 /// SNORD25 /// SNORD26 /// SNORD27 /// SNORD28 /// SNORD29 /// SNORD31 / Fold change vs veh, SNHG1 /// SNORD22 /// SNORD25 /// SNORD26 /// SNORD27 /// SNORD28 /// SNORD29 /// SNORD31 / Fold change (Aza/veh), C12orf56 (ProbeSet 11735607_a_at) / Fold change (ACY-1035/veh), C12orf56 (ProbeSet 11735607_a_at) / Fold change (Aza/veh), FGFR1OP (ProbeSet 11751329_s_at) / Fold change (ACY-1035/veh), FGFR1OP (ProbeSet 11751329_s_at) / Fold change (Aza/veh), VPS36 (ProbeSet 11739960_a_at) / Fold change (ACY-1035/veh), VPS36 (ProbeSet 11739960_a_at) / RFU SYPL1 (11715823_x_at) / Fold change /veh SYPL1 (11715823_x_at) / RFU IGFBP7 (11715501_s_at) / Fold change /veh IGFBP7 (11715501_s_at) / RFU REEP3 (11722064_at) / Fold change /veh REEP3 (11722064_at) / RFU IGLL1 (11728026_x_at) / Fold change /veh IGLL1 (11728026_x_at): dose or concentration left out as unconfirmed
# Details: ProbeSet 11743286_at; LIST D
smiles,measurement,value
Nc1ncn([C@@H]2O[C@H](CO)[C@@H](O)[C@H]2O)c(=O)n1 [azacitidine],"Fold change vs veh, DTX4",0.59
